Each compound was assayed against T1, human B1 receptor (Homo sapiens, UniProt P46663) (assay: Calcium flux assay (FLIPR) with recombinant CHO-K1 cells expressing human B1 receptor). Details: absence of 0.1% BSA in assay buffer, read-out: hB1 free IC50.
T1 construct: host or cells: CHO-K1
T1 sequence (P46663 1-353): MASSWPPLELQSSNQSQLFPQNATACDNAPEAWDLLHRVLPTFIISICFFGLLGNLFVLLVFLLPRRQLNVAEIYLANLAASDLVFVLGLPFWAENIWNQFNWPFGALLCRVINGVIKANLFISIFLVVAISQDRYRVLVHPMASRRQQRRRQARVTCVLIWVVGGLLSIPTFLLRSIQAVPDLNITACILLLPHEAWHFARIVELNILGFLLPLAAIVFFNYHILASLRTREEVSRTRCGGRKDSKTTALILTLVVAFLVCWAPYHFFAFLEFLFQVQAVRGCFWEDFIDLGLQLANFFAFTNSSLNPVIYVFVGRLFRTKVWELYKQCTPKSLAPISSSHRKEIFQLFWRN
Assay type: cell-based
Procedure: The potency to inhibit the Bradykinin B1 receptors was determined for the example compounds of this invention in a cell-based fluorescent calcium-mobilisation assay. The assay measures the ability of example compounds to inhibit Bradykinin B1 receptor agonist-induced increase of intracellular free Ca^2+ in the cell line expressing B1 receptor. Specifically, calcium indicator-loaded cells are pre-incubated in the absence or presence of different concentrations of example compounds followed by the stimulation with a selective B1 receptor agonist peptide. The change of the intracellular Ca^2+ concentration is monitored with a fluorescent plate reader FLIPR (Molecular Devices).
Calcium Flux Assays (FLIPR) with Cells Expressing Bradykinin B1 Receptor Calcium Flux Assay (FLIPR) with Recombinant Cells for Bradykinin B1 Receptor Antagonist, Either in the Presence (hB1 IC50) or Absence (hB1 free IC50) of 0.1% Bovine Serum Albumin (BSA) in Assay Buffer
CHO-K1 cell line expressing human B1 receptor was purchased from Euroscreen (Gosselies, Belgium, with reference name hB1-D1). The cells were grown in Nutrient Mixture Ham's F12 (Sigma) containing 10% Foetal bovine serum (Sigma) and 400 μg/mL G418 (Sigma), 5 μg/mL puromycin (Sigma).
For the calcium flux assay, 80% confluent cells were detached from the culture vessels with Versene (Gibco), and seeded into 384-well plates (Cell binding Surface; Corning, N.Y.; #3683) at a density of 15,000 cells per well. Cells were seeded in a volume of 50 μL in medium without antibiotics and incubated overnight in a humidified atmosphere with 5% CO2 at 37° C. […] The calcium indicator loaded cells were incubated at 37° C. for 2 hrs. Extracellular dye was then removed and each well was filled with 45 μL of assay buffer. Cell plates were kept in dark until used. Example compounds were assayed at 8 concentrations in triplicate. Serial 10-fold dilutions in 100% DMSO were made at a 100-times higher concentration than the final concentration, and then diluted 1:10 in assay buffer. 5 μL of each diluted compound was added to the well of cell plates (yielding final concentration with 1% DMSO), and incubated for 30 min at 28° C. before the addition of B1 receptor agonist on the FLIPR instrument.
Agonist plates contained the agonist Lys-(Des-Arg)-Bradykinin (Bachem, Brackley) at 3.5×EC90 in assay buffer with 1% DMSO. The addition of agonist 20 μl per well to the assay plate was carried out on the FLIPR instrument while continuously monitoring Ca^2+-dependent fluorescence at 538 nm. A peptide antagonist Lys-(Des-Arg-Leu)-Bradykinin (Bachem, Brackley) at 20 μM was used to determine the full inhibition as control.
Peak fluorescence was used to determine the response to agonist obtained at each concentration of example compound by the following equation:
% Response=100*(RFU(example compound)−RFU(control)/(RFU(DMSO)−RFU(control)
Control=full inhibition by the peptide antagonist Lys-(Des-Arg-Leu)-Bradykinin at 20 μM
The response values were plotted against the logarithm of the compound concentrations. The compounds were tested in triplicates per plate and mean values were plotted in Excel XLfit to determine IC50 values, percentage of maximal inhibition and the Hill slopes.
In the case of `O=C(Nc1ccc(-n2cc(C(F)(F)F)cn2)c(-c2nnn[nH]2)c1)C1CC1c1ccccc1` (racemic) [Example 43, 2-Phenyl-N-{3-(1H-tetrazol-5-yl)-4-[4-(trifluoromethyl)-1H-pyrazol-1-yl]phenyl}cyclopro-panecarboxamide], the IC50 is reported as 2210 nM. `CC(C)(C)c1cnn(-c2ccc(NC(=O)C3CC3c3ccc(Cl)cc3)cc2-c2nnn[nH]2)c1` (racemic) [Example 44, N-[4-(4-tert-butyl-1H-pyrazol-1-yl)-3-(1H-tetrazol-5-yl)phenyl]-2-(4-chlorophenyl)cyclopro-panecarboxamide] showed an IC50 of 26 nM. Compound `CC(C)(C)c1ccn(-c2ccc(NC(=O)C3CC3c3ccc(Cl)cc3)cc2-c2nnn[nH]2)n1` (racemic) [Example 45, N-[4-(3-tert-butyl-1H-pyrazol-1-yl)-3-(1H-tetrazol-5-yl)phenyl]-2-(4-chlorophenyl)cyclopro-panecarboxamide] has an IC50 of 463 nM. `O=C(Nc1ccc(-n2cc(C(F)(F)F)cn2)c(-c2nnn[nH]2)c1)C1CC1c1ccc(Cl)cc1` (racemic) [Example 46, 2-(4-Chlorophenyl)-N-{3-(1H-tetrazol-5-yl)-4-[4-(trifluoromethyl)-1H-pyrazol-1-yl]phenyl}cyclopropane-carboxamide] gave an IC50 of 1180 nM. In the case of `O=C(Nc1ccc(-n2ccc(C(F)(F)F)n2)c(-c2nnn[nH]2)c1)C1CC1c1ccc(Cl)cc1` (racemic) [Example 47, 2-(4-Chlorophenyl)-N-{3-(1H-tetrazol-5-yl)-4-[3-(trifluoromethyl)-1H-pyrazol-1-yl]phenyl}cyclopropane-carboxamide], the IC50 is reported as 1220 nM. `COc1ccc(-c2cc(F)c(NC(=O)C3CC3c3ccc(Cl)cc3)cc2-c2nnn[nH]2)cc1C` (racemic) [Example 57, 2-(4-chlorophenyl)-N-[5-fluoro-4′-methoxy-3′-methyl-2-(1H-tetrazol-5-yl)biphenyl-4-yl]cyclo-propanecarboxamide] was tested, and the IC50 was 24 nM. In the case of `O=C(Nc1cc(F)c(-c2ccc(C(F)(F)F)nc2)c(-c2nnn[nH]2)c1)C1CC1c1ccc(Cl)cc1` (racemic) [Example 62, 2-(4-chlorophenyl)-N-{3-fluoro-5-(1H-tetrazol-5-yl)-4-[6-(trifluoromethyl)pyridin-3-yl]phenyl}cyclopro-panecarboxamide], the IC50 is reported as 947 nM.

Same assay, conditions: presence of 0.1% BSA in assay buffer, read-out: hB1 IC50
With `COCc1ccc(-c2ccc(NC(=O)C3CC3C3CCCCC3)cc2-c2nnn[nH]2)cc1C` (racemic) [Example 33, 2-cyclohexyl-N-[4′-(methoxymethyl)-3′-methyl-2-(1H-tetrazol-5-yl)biphenyl-4-yl]cyclo-propanecarboxamide] the IC50 was 28 nM. Work on `COc1ccc(-c2ccc(NC(=O)C3CC3c3ccc(Cl)cc3)cc2-c2nnn[nH]2)cc1C` (racemic) [Example 34, 2-(4-chlorophenyl)-N-[4′-methoxy-3′-methyl-2-(1H-tetrazol-5-yl)biphenyl-4-yl]cyclopropanecarbox-amide] yielded an IC50 of 232 nM. Compound `COc1ccc(-c2ccc(NC(=O)C3CC3c3ccc(C)cc3)cc2-c2nnn[nH]2)cc1` (racemic) [Example 36, N-[4′-methoxy-2-(1H-tetrazol-5-yl)biphenyl-4-yl]-2-(4-methylphenyl)cyclopro-panecarboxamide] has an IC50 of 662 nM. `COc1ccc(-c2ccc(NC(=O)C3CC3C3CCCCC3)cc2-c2nnn[nH]2)cc1` (racemic) [Example 37, 2-cyclohexyl-N-[4′-methoxy-2-(1H-tetrazol-5-yl)biphenyl-4-yl]cyclopropanecarbox-amide] showed an IC50 of 469 nM. `COCc1ccc(-c2ccc(NC(=O)C3CC3c3ccc(Cl)cc3)cc2-c2nnn[nH]2)cc1` (racemic) [Example 38, 2-(4-chlorophenyl)-N-[4′-(methoxymethyl)-2-(1H-tetrazol-5-yl)biphenyl-4-yl]cyclopropanecarbox-amide] gave an IC50 of 1470 nM. Work on `COc1ccc(-c2ccc(NC(=O)C3CC3c3ccc(Cl)cc3)cc2-c2nnn[nH]2)cc1Cl` (racemic) [Example 39, N-[3′-chloro-4′-methoxy-2-(1H-tetrazol-5-yl)biphenyl-4-yl]-2-(4-chlorophenyl)cyclopro-panecarboxamide] yielded an IC50 of 1230 nM. For `COc1ccc(-c2ccc(NC(=O)C3CC3C3CCCCC3)cc2-c2nnn[nH]2)cc1Cl` (racemic) [Example 40, N-[3′-chloro-4′-methoxy-2-(1H-tetrazol-5-yl)biphenyl-4-yl]-2-cyclohexylcyclopropane-carboxamide], the IC50 was 1030 nM. With `O=C(Nc1ccc(-c2ccc(OC(F)(F)F)cc2)c(-c2nnn[nH]2)c1)C1CC1c1ccc(Cl)cc1` (racemic) [Example 41, 2-(4-chlorophenyl)-N-[2-(1H-tetrazol-5-yl)-4′-(trifluoro-methoxy)biphenyl-4-yl]cyclopropanecarbox-amide] the IC50 was 33 nM. In the case of `O=C(Nc1ccc(-c2ccc(OC(F)(F)F)cc2)c(-c2nnn[nH]2)c1)C1CC1C1CCCCC1` (racemic) [Example 42, 2-cyclohexyl-N-[2-(1H-tetrazol-5-yl)-4′-(trifluoro-methoxy)biphenyl-4-yl]cyclopropanecarbox-amide], the IC50 is reported as 31 nM. Compound `COc1ccc(-c2cc(F)c(NC(=O)C3CC3c3cccc(C)c3)cc2-c2nnn[nH]2)cc1OC` (racemic) [Example 53, N-[5-Fluoro-3′,4′-dimethoxy-2-(1H-tetrazol-5-yl)biphenyl-4-yl]-2-(3-methylphenyl)cyclopro-panecarboxamide] has an IC50 of 16 nM. Compound `COc1ccc(-c2cc(F)c(NC(=O)C3CC3c3ccc(Cl)cc3)cc2-c2nnn[nH]2)cc1OC` (racemic) [Example 54, 2-(4-Chlorophenyl)-N-[5-fluoro-3′,4′-dimethoxy-2-(1H-tetrazol-5-yl)biphenyl-4-yl]cyclopro-panecarboxamide] has an IC50 of 26 nM. `COc1ccc(-c2cc(F)c(NC(=O)C3CC3c3cccc(C)c3)cc2-c2nnn[nH]2)cc1C` (racemic) [Example 56, N-[5-Fluoro-4′-methoxy-3′-methyl-2-(1H-tetrazol-5-yl)biphenyl-4-yl]-2-(3-methylphenyl)cyclopro-panecarboxamide] was tested, and the IC50 was 19 nM. Compound `COc1ccc(-c2cc(F)c(NC(=O)C3CC3c3ccc(Cl)cc3)cc2-c2nnn[nH]2)cc1C` (racemic) [Example 57, 2-(4-chlorophenyl)-N-[5-fluoro-4′-methoxy-3′-methyl-2-(1H-tetrazol-5-yl)biphenyl-4-yl]cyclo-propanecarboxamide] has an IC50 of 124 nM. With `COc1ccc(-c2cc(F)c(NC(=O)C3CC3c3ccc(Cl)cc3)cc2-c2nnn[nH]2)cc1` (racemic) [Example 58, 2-(4-Chlorophenyl)-N-[5-fluoro-4′-methoxy-2-(1H-tetrazol-5-yl)biphenyl-4-yl]cyclopropanecarbox-amide] the IC50 was 134 nM. Compound `COc1ccc(-c2c(F)cc(NC(=O)C3CC3c3cccc(C)c3)cc2-c2nnn[nH]2)cc1OC` (racemic) [Example 59, N-[2-Fluoro-3′,4′-dimethoxy-6-(1H-tetrazol-5-yl)biphenyl-4-yl]-2-(3-methylphenyl)cyclopro-panecarboxamide] has an IC50 of 83 nM. For `COc1ccc(-c2c(F)cc(NC(=O)C3CC3C3CCCCC3)cc2-c2nnn[nH]2)cc1OC` (racemic) [Example 60, 2-Cyclohexyl-N-[2-fluoro-3′,4′-dimethoxy-6-(1H-tetrazol-5-yl)biphenyl-4-yl]cyclopro-panecarboxamide], the IC50 was 177 nM. Compound `CCOc1ccc(-c2cc(C)c(NC(=O)C3CC3c3cccc(C)c3)cc2-c2nnn[nH]2)cn1` (racemic) [Example 63, N-[4-(6-Ethoxypyridin-3-yl)-2-methyl-5-(1H-tetrazol-5-yl)phenyl]-2-(3-methylphenyl)cyclo-propanecarboxamide] has an IC50 of 24 nM. `CCOc1ccc(-c2cc(C)c(NC(=O)C3CC3C3CCCCC3)cc2-c2nnn[nH]2)cn1` (racemic) [Example 65, 2-Cyclohexyl-N-[4-(6-ethoxypyridin-3-yl)-2-methyl-5-(1H-tetrazol-5-yl)phenyl]cyclopropane-carboxamide] was tested, and the IC50 was 247 nM.

— patent US20190194148A1, “TETRAZOLE-CONTAINING 1,2-CYCLOPROPANE-CARBOXAMIDES” (Bayer Pharma Aktiengesellschaft, priority 2017, published 2019)
